Assay results: patent US11767316B2, “Non-fused thiophene derivatives and their uses” (ENYO PHARMA, priority 2018, dated 2023)

These compounds were tested on H1N1 (influenza A/New Caledonia/20/99) (assay: Antiviral effect on A549 cells infected with H1N1 (MUNANA neuraminidase readout)). Details: H1N1 A/New Caledonia/20/99 at MOI 0.1, 48 h post-infection, MUNANA fluorescence, read-out: IC50.
Assay type: cell-based
Experimental: The antiviral effect of the compounds of the invention have been tested on A549 cell lines infected with H1N1 (influenza A/New Caledonia/20/99).
Human A549 cells (80,000 cells/well in a 96 well plate) were treated with a range of concentration of test compounds and immediately infected by H1N1 A/New Caledonia/20/99 virus (clinical isolate) at MOI of 0.1 in DMEM/1% Penicillin/streptomycin supplemented with 0.25 μg/ml TPCK trypsin (Sigma) and incubated at 37° C. in 5% CO2. 48 h post-infection, supernatants (25 μl) were collected and transferred into a 96-well black flat-bottom plate, mixed with 25 μl PBS with Ca++/Mg++(Thermo Fisher) and 50 μl of 2′-(4-Methylumbelliferyl)-α-D-N-acetylneuraminic acid sodium salt hydrate stock-solution (20 μM, MUNANA, Sigma). Plates were incubated 1 h at 37° C. and reaction is stopped by adding 100 μl of Stop Solution (glycine 0.1 M pH10.7/25% ethanol). The amount of fluorescent product released by MUNANA hydrolysis (4-MU) was measured in a Tecan spectrophotometer with excitation and emission wavelengths of 365 and 450 nm respectively.

Row | Structure (SMILES) | IC50
1 | O=C(Nc1scc(C2CCc3ccccc3C2)c1C(=O)O)c1ccccc1 (stereo not drawn) [#157] | 7 nM
2 | O=C(Nc1scc(C2CCc3ccccc3C2)c1C(=O)O)c1ccccc1 (stereo not drawn) [#156] | 185 nM
3 | O=C(Nc1scc(C2CCc3ccccc3C2)c1C(=O)O)c1ccc(OC(F)F)cc1 (stereo not drawn) [#174] | 0.3 nM
4 | O=C(Nc1scc(C2CCc3ccccc3C2)c1C(=O)O)c1ccc(F)cc1 (stereo not drawn) [#172] | 617 nM
5 | O=C(Nc1scc(C2CCc3ccccc3C2)c1C(=O)O)c1ccc(OC(F)F)cc1 (stereo not drawn) [#175] | 14 nM
6 | O=C(Nc1scc(C2CCc3ccccc3C2)c1C(=O)O)c1ccc(F)cc1 (stereo not drawn) [#171] | 6 nM

Same assay, conditions: Influenza A virus, H1N1, A549, 48 h, H1N1 A/New Caledonia/20/99 at MOI 0.1, 48 h post-infection, MUNANA fluorescence

Row | Structure (SMILES) | IC50
7 | O=C(Nc1scc(C2CCc3ccccc3C2)c1C(=O)O)c1ccc(N2CCCS2(=O)=O)cc1 (stereo not drawn) [#184] | 32 nM
8 | O=C(Nc1scc(C2CCc3ccccc3C2)c1C(=O)O)c1ccc(OC2CCOCC2)cc1 (stereo not drawn) [#182] | 3 nM

Same assay, conditions: Influenza A virus, H1N1, A549, 48 h, H1N1 A/New Caledonia/20/99 at MOI 0.1, 48 h post-infection, MUNANA fluorescence, read-out: IC50

Row | Structure (SMILES) | IC50
9 | O=C(Nc1scc(C2CCc3ccc(F)cc3C2)c1C(=O)O)c1ccccc1 (stereo not drawn) [#189] | 178 nM
10 | O=C(Nc1scc(C2=Cc3ccccc3CC2)c1C(=O)O)c1ccccc1 [#185] | 260 nM
11 | O=C(Nc1scc(C2CCc3c(F)cccc3C2)c1C(=O)O)c1ccccc1 (stereo not drawn) [#190] | 8 nM
12 | COc1ccccc1C(=O)Nc1scc(C2CCc3ccccc3C2)c1C(=O)O (stereo not drawn) [#159] | 100 nM
13 | COc1cc(C(=O)Nc2scc(C3CCc4ccccc4C3)c2C(=O)O)cc(OC)c1NCC1CCOCC1 (stereo not drawn) [#137] | 4.2 nM
14 | COCCNc1ccc(C(=O)Nc2scc(C3CCc4ccccc4C3)c2C(=O)O)cc1 (stereo not drawn) [#65] | 4 nM
15 | O=C(Nc1scc(-c2ccc3c(c2)CCCC3)c1C(=O)O)c1ccccc1 [#123] | 133 nM
16 | C[C@H]1COCCN1c1ccc(C(=O)Nc2scc(C3CCc4ccccc4C3)c2C(=O)O)cc1 (stereo partly drawn) [#146] | 0.5 nM
17 | O=C(Nc1scc(C2Cc3ccccc3C2)c1C(=O)O)c1ccccc1 [#7] | 144 nM
18 | COc1ccc(C(=O)Nc2scc(C3CCc4ccccc4C3)c2C(=O)O)cc1OC (stereo not drawn) [#155] | 3 nM
19 | O=C(Nc1scc(C2CCc3ccccc3C2)c1C(=O)O)c1ccccc1N1CCOCC1 (stereo not drawn) [#129] | 460 nM
20 | O=C(Nc1scc(C2CCc3ccccc3C2)c1C(=O)O)c1ccc2c(c1)CCCO2 (stereo not drawn) [#181] | 2 nM
21 | O=C(O)c1c(C2CCc3ccccc3C2)csc1NC(=O)C12CC(C1)C2 (stereo not drawn) [#192] | 347 nM
22 | COc1cc(C(=O)Nc2scc(C3CCc4ccccc4C3)c2C(=O)O)ccc1F (stereo not drawn) [#164] | 8 nM
23 | O=C(Nc1sc(Cl)c(C2CCc3ccccc32)c1C(=O)O)c1ccccc1 (stereo not drawn) [#49] | 130 nM
24 | O=C(Nc1scc(C2CCc3ccccc3C2)c1C(=O)O)c1ccc(NCCCCO)cc1 (stereo not drawn) [#133] | 50 nM
25 | COCCCNc1ccc(C(=O)Nc2scc(C3CCc4ccccc4C3)c2C(=O)O)cc1 (stereo not drawn) [#64] | 3.3 nM
26 | COCCOc1ccc(C(=O)Nc2scc(C3CCc4ccccc4C3)c2C(=O)O)cc1 (stereo not drawn) [#101] | 44.6 nM
27 | C[C@@H]1CN(c2ccc(C(=O)Nc3scc(C4CCc5ccccc5C4)c3C(=O)O)cc2)CCO1 (stereo partly drawn) [#147] | 8 nM
28 | O=C(Nc1scc(C2CCc3ccccc3C2)c1C(=O)O)c1cnc(N2CCOCC2)nc1 (stereo not drawn) [#89] | 240 nM
29 | CS(=O)(=O)c1ccc(C(=O)Nc2scc(C3CCc4ccccc4C3)c2C(=O)O)cc1 (stereo not drawn) [#165] | 900 nM
30 | CN(CC1CCOCC1)c1ccc(C(=O)Nc2scc(C3CCc4ccccc4C3)c2C(=O)O)cc1 (stereo not drawn) [#132] | 2 nM
31 | O=C(Nc1scc(C2CCc3ccccc3C2)c1C(=O)O)c1cccc(N2CCOCC2)c1 (stereo not drawn) [#70] | 7.5 nM
32 | O=C(O)c1c(C2CCc3ccccc3C2)csc1NC(=O)C12CC(F)(C1)C2 (stereo not drawn) [#193] | 315 nM
33 | COC1CN(c2ccc(C(=O)Nc3scc(C4CCc5ccccc5C4)c3C(=O)O)cc2)C1 (stereo not drawn) [#53] | 4 nM

Row | Structure (SMILES) | IC50
34 | O=C(Nc1scc(C2CCc3ccccc3C2)c1C(=O)O)c1ccc(NCC2CCS(=O)(=O)CC2)cc1 (stereo not drawn) [#138] | 22 nM
35 | C[C@@H]1COCCN1c1ccc(C(=O)Nc2scc(C3CCc4ccccc4C3)c2C(=O)O)cc1 (stereo partly drawn) [#145] | 32 nM
36 | O=C(Nc1scc(C2CCc3ccccc3C2)c1C(=O)O)c1cccc(OC(F)F)c1 (stereo not drawn) [#170] | 18 nM
37 | COc1ccc(C(=O)Nc2scc(C3CCc4ccccc4C3)c2C(=O)O)cc1 (stereo not drawn) [#154] | 2.7 nM
38 | O=C(Nc1scc(C2CCc3cc(F)ccc3C2)c1C(=O)O)c1ccccc1 (stereo not drawn) [#191] | 46 nM
39 | O=C(Nc1scc(C2CCc3ccccc3CC2)c1C(=O)O)c1ccccc1 [#122] | 744 nM
40 | O=C(Nc1scc(C2CCc3ccccc3C2)c1C(=O)O)c1ccc(NCC2CCCCC2)cc1 (stereo not drawn) [#128] | 0.8 nM
41 | O=C(Nc1scc(C2CCc3ccccc3C2)c1C(=O)O)c1ccc(NCC2(O)CCOCC2)cc1 (stereo not drawn) [#136] | 30 nM
42 | O=C(Nc1scc(C2CCc3ccccc3C2)c1C(=O)O)c1ccc(NCC2CCOCC2)cc1 (stereo not drawn) [#69] | 3 nM
43 | O=C(Nc1scc(C2CCCc3ccccc32)c1C(=O)O)c1ccc(F)cc1 (stereo not drawn) [#126] | 237 nM
44 | O=C(Nc1scc(C2CCc3ccccc3C2)c1C(=O)O)c1ccc(OC(F)(F)F)cc1 (stereo not drawn) [#153] | 0.4 nM
45 | Cc1ccc(C(=O)Nc2scc(C3CCc4ccccc4C3)c2C(=O)O)cc1 (stereo not drawn) [#166] | 39 nM
46 | C[C@@H]1CN(c2ccc(C(=O)Nc3scc(C4CCc5ccccc5C4)c3C(=O)O)cc2)C[C@H](C)O1 (stereo partly drawn) [#148] | 24 nM
47 | O=C(Nc1sc(Cl)c(C2Cc3ccccc3C2)c1C(=O)O)c1ccccc1 [#8] | 187 nM
48 | CC1(C)Cc2cc(C(=O)Nc3scc(C4CCc5ccccc5C4)c3C(=O)O)ccc2O1 (stereo not drawn) [#179] | 29 nM
49 | C[C@@H]1COC[C@H](C)N1c1ccc(C(=O)Nc2scc(C3CCc4ccccc4C3)c2C(=O)O)cc1 (stereo partly drawn) [#149] | 29 nM
50 | O=C(Nc1scc(C2CCc3ccccc3C2)c1C(=O)O)c1ccccc1O (stereo not drawn) [#160] | 147 nM
51 | O=C(Nc1scc(C2CCc3ccccc3C2)c1C(=O)O)c1ccc(NC(CO)C2CCOCC2)cc1 (stereo not drawn) [#131] | 110 nM
52 | O=C(Nc1scc(C2CCc3ccccc3C2)c1C(=O)O)c1ccc2c(c1)CCO2 (stereo not drawn) [#177] | 35 nM
53 | O=C(Nc1scc(C2CCc3ccccc3C2)c1C(=O)O)c1ccc(N2C[C@H]3C[C@@H]2CO3)cc1 (stereo partly drawn) [#141] | 2.7 nM
54 | O=C(Nc1scc(C2CCc3ccccc3C2)c1C(=O)O)c1ccccn1 (stereo not drawn) [#186] | 134 nM
55 | O=C(Nc1sc(C2CC2)c(C2Cc3ccccc3C2)c1C(=O)O)c1ccccc1 [#51] | 52 nM
56 | O=C(Nc1scc(C2CCc3ccccc3C2)c1C(=O)O)c1ccc(Cl)cc1 (stereo not drawn) [#161] | 16 nM
57 | COC1CN(c2ccc(C(=O)Nc3scc(C4CCc5ccccc54)c3C(=O)O)cc2)C1 (stereo not drawn) [#58] | 100 nM
58 | O=C(Nc1scc(C2CCc3ccccc3C2)c1C(=O)O)c1ccc(C(F)(F)F)cc1 (stereo not drawn) [#158] | 7 nM

Row | Structure (SMILES) | IC50
59 | O=C(Nc1scc(C2CCc3ccccc3C2)c1C(=O)O)c1cccc(F)c1 (stereo not drawn) [#169] | 162 nM
60 | C[C@H]1CN(c2ccc(C(=O)Nc3scc(C4CCc5ccccc5C4)c3C(=O)O)cc2)CCO1 (stereo partly drawn) [#143] | 4 nM
61 | O=C(Nc1scc(C2CCc3ccccc3C2)c1C(=O)O)c1cccc(Cl)c1 (stereo not drawn) [#167] | 75 nM
62 | O=C(Nc1scc(C2CCc3ccccc3C2)c1C(=O)O)c1ccc(N2C3COCC2C3)cc1 (stereo not drawn) [#150] | 1 nM
63 | O=C(Nc1scc(C2CCc3ccccc3C2)c1C(=O)O)c1ccc2c(c1)OCCO2 (stereo not drawn) [#176] | 76 nM
64 | COc1cc(C(=O)Nc2scc(C3CCc4ccccc4C3)c2C(=O)O)ccc1NCC1CCOCC1 (stereo not drawn) [#127] | 1.8 nM
65 | O=C(Nc1scc(-c2ccc3c(c2)CCC3)c1C(=O)O)c1ccccc1 [#3] | 280 nM
66 | O=C(Nc1scc(C2CCc3ccccc3C2)c1C(=O)O)c1ccccc1CN1CCOCC1 (stereo not drawn) [#130] | 560 nM
67 | O=C(Nc1scc(C2CCc3ccccc3C2)c1C(=O)O)c1ccc(NC2CCCOC2)cc1 (stereo not drawn) [#67] | 2 nM
68 | O=C(Nc1scc(C2CCc3ccccc3C2)c1C(=O)O)c1ccc(N2CC3CCC(C2)O3)cc1 (stereo not drawn) [#142] | 0.3 nM
69 | O=C(Nc1scc(C2CCc3ccccc32)c1C(=O)O)c1ccc(NC2CCOCC2)cc1 (stereo not drawn) [#55] | 33.8 nM
70 | CC(C)(C)Oc1ccc(C(=O)Nc2scc(C3CCc4ccccc4C3)c2C(=O)O)cc1 (stereo not drawn) [#188] | 15 nM
71 | O=C(Nc1scc(C2CCc3ccccc32)c1C(=O)O)c1ccc(N2CCOCC2)cc1 (stereo not drawn) [#56] | 110 nM
72 | O=C(Nc1scc(C2CCc3ccccc3C2)c1C(=O)O)c1ccc(NC2CCOCC2)cc1 (stereo not drawn) [#52] | 0.4 nM
73 | O=C(Nc1scc(C2CCc3ccccc3C2)c1C(=O)O)c1ccc(OC2CCC2)cc1 (stereo not drawn) [#178] | 122 nM
74 | COC1CN(c2cccc(C(=O)Nc3scc(C4CCc5ccccc5C4)c3C(=O)O)c2)C1 (stereo not drawn) [#93] | 8 nM
75 | COCCCCNc1ccc(C(=O)Nc2scc(C3CCc4ccccc4C3)c2C(=O)O)cc1 (stereo not drawn) [#135] | 3 nM
76 | O=C(Nc1scc(C2CCc3ccccc3C2)c1C(=O)O)c1ccc(N2C3CCC2COC3)cc1 (stereo not drawn) [#144] | 4 nM
77 | O=C(Nc1scc(C2CCc3ccccc3C2)c1C(=O)O)c1ccccc1F (stereo not drawn) [#163] | 43 nM
78 | COc1ccc(C(=O)Nc2scc(C3CCc4ccccc4C3)c2C(=O)O)nc1 (stereo not drawn) [#187] | 15 nM
79 | O=C(Nc1scc(C2CCc3ccccc3C2)c1C(=O)O)c1ccc(N2CC3CC(C2)O3)cc1 (stereo not drawn) [#139] | 15 nM
80 | O=C(Nc1scc(C2CCc3ccccc3C2)c1C(=O)O)c1ccc(NCC2CCOCC2)c(O)c1 (stereo not drawn) [#134] | 24 nM
81 | O=C(Nc1scc(C2CCc3ccccc3C2)c1C(=O)O)c1ccc(N2CCOCC2)cc1 (stereo not drawn) [#68] | 52 nM
